Experimental data as given in paper PMC8125528 (Molecules, 2021).
Where two headings read alike, the source gives them in different places.

What was measured:
Caco-2 cells = assay: cells; settings: Homo sapiens, Caco-2, 72 h, read-out: Estimated IC50, Caco-2
Description: (§1) The antiproliferative effect of compounds was evaluated by the 3-(4,5-dimethylthiazol-2-yl)-2,5-diphenyltetrazolium bromide (MTT; Sigma-Aldrich, St Louis, MO, USA) assay in MCF-7, T47-D, LNCaP, HepaRG, Caco-2 and NHDF cells. After reaching near confluence, cells were trypsinized and counted with a hemocytometer by means of the trypan-blue exclusion of dead cells. Then, 100 µL of cell suspension (2 × 10^4 cells/mL) was seeded in 96-well culture plates and left to adhere and growth during 48 h. […] Afterward, MTT containing medium was removed and formazan crystals were dissolved in DMSO. Absorbance was measured at 570 nm using a microplate reader Bio-rad Xmark spectrophotometer. After background subtraction, cell proliferation values were expressed as percentage relatively to the absorbance determined in negative control cells. Untreated cells were used as the negative control and the clinical drug 5-fluorouracil (5-FU) was used as positive control. Each experiment was performed in quadruplicate and independently repeated.
(§2) Data were expressed as mean ± standard deviation (SD). t-Student test (two groups) and one-way ANOVA (three groups) were used followed by Bonferroni post hoc tests to determine statistically significant differences among the means.

MCF-7 cells = assay: MTT antiproliferative assay, MCF-7; format: cell-based; settings: for IC50: Homo sapiens, MCF7, breast MCF-7 cells, 72 h, MTT assay, 0.1-100 µM, read-out: Estimated IC50, MCF-7; for Selectivity index, MCF-7: ratio of IC50 in NHDF to IC50 in MCF-7
Description: (§3) Each experiment was performed in quadruplicate and independently repeated.

HepaRG cells = assay: MTT antiproliferative assay, HepaRG; format: cell-based; settings: for IC50: Homo sapiens, liver HepaRG cells, 72 h, MTT assay, 0.1-100 µM, read-out: Estimated IC50, HepaRG; for Selectivity index, HepaRG: ratio of IC50 in NHDF to IC50 in HepaRG
Description: as §3

[1] = test system: normal human dermal fibroblasts (NHDF); assay: MTT antiproliferative assay, NHDF; format: cell-based; settings: normal fibroblast NHDF cells, 72 h, 0.1-100 µM, read-out: Estimated IC50, NHDF
Description: as §3

in vitro = settings: human, Caco-2
Description: as §1, §2

LNCaP cells [2] = assay: LNCaP cell viability by flow cytometry after propidium iodide staining; format: cell-based; settings: 50 µM, 24 h, PI flow cytometry
Description: The analysis of LNCaP cells viability was performed by flow cytometry after staining with propidium iodide (PI) (solution of PI 1 mg/mL in 0.1% of sodium azide and water; Sigma Aldrich, St Louis, MO, USA). Briefly, 3 mL of cells suspension were seeded in 6-well plates (5 × 10^4 cells/mL) in complete culture medium. After 48 h they were treated with 50 µM of compound 11. Untreated cells were used as negative control and 5-FU (50 µM) was used as positive control. Each experiment was performed in duplicate and independently repeated. At the end of 24 h of incubation, the supernatant of each well was collected, cells were harvested by trypsinization and pooled with the supernatants. The resulting cell suspension was kept on ice, pelleted by centrifugation and resuspended in 400 µL of complete medium. Afterward, 395 µL of the cell suspension was transferred to a FACS tube and 5 µL of PI and 0.5 µL of ethylenediamine tetraacetic acid (EDTA, 0.123 M) were added. A minimum of 20,000 events was acquired using a BD Accuri C6 (San Jose, CA, USA) flow cytometer in the channels forward scatter (FSC), side scatter (SSC) and fluorescence channel-3 (FL3, for PI). Acquisition and analysis were performed with BD Accuri Software. […]

LNCaP cells [3] = assay: Cell cycle distribution of LNCaP cells by flow cytometry; format: cell-based; settings: 50 µM, 24 h
Description: After 24 h of treatment with compound 11 at 50 µM (6-well plates, 5 × 10^4 cells/mL), LNCaP cells were collected and washed with PBS and resuspended in 450 µL of a cold solution of 0.5% bovine serum albumin (BSA; Amresco, Solon, OH, USA) and 1 mM EDTA in PBS, followed by fixation with 70% EtOH and kept at −20 °C. Afterward, fixed cells were washed twice with PBS and resuspended in a solution of PI (50 µg/mL) prepared in 0.5% BSA and 1 mM EDTA in PBS and then incubated with Ribonuclease A from bovine pancreas at a final concentration of 0.5 µg/µL (solution in 50% glycerol, 10 mM Tris-HCl, pH 8; Sigma Aldrich, St Louis, MO, USA) for 15 min in the dark. For comparison, untreated cells were used as negative control and cells treated with 5-FU at 50 µM were used as positive control. Each experiment was performed in duplicate and independently repeated. A minimum of 10,000 events was acquired using BD Accuri Software and analysis was performed by Modfit software (Becton Dickinson, San Jose, CA, USA).

LNCaP cells [4] = assay: MTT antiproliferative assay, LNCaP; format: cell-based; settings: for IC50: Homo sapiens, prostate LNCaP cells, MTT assay, 0.1-100 µM, read-out: Estimated IC50, LNCaP; for Selectivity index, LNCaP: ratio of IC50 in NHDF to IC50 in LNCaP
Description: as §3

T47-D cells = assay: MTT antiproliferative assay, T47-D; format: cell-based; settings: for IC50: Homo sapiens, T47D, breast T47-D cells, 72 h, MTT assay, 0.1-100 µM, read-out: Estimated IC50, T47-D; for Selectivity index, T47-D: ratio of IC50 in NHDF to IC50 in T47-D
Description: as §3

17β-HSD1 = settings: at 10 μM; cited from earlier work
LNCaP cells [5] = assay: Fluorescence microscopy of LNCaP cells after Hoechst 33258 DNA staining; format: cell-based; settings: 50 µM, 24 h
Description: Near-confluent LNCaP cells were seeded in a 6-well plate (5 × 10^4 cells/mL). After adherence and incubation for 24h with compound 11 (50 µM), the dye Hoechst 33,258 was added to the culture medium to achieve a final concentration of 1µg/mL. The cells were incubated for 15 min at 37 °C and were then photographed by means of a Nikon Eclipse microscope equipped with a fluorescence attachment containing the appropriate optical blocks and a QCapture CCD camera.

[6] = test system: estrogen-sensitive breast cancer T47-D cells (ER+); assay: E-screening (estrogenicity) assay in T47-D cells; format: cell-based; settings: 0.001 and 0.01 µM, vs. negative control, MTT readout
Description: After overnight incubation, the medium was replaced every 3 days with fresh phenol red free RPMI 1640 medium supplemented with 5% of dextran-coated charcoal-treated fetal calf serum (DCC-FCS) and containing compound 11 (0.1, 0.01 and 0.001 µM). […] Each experiment was performed in quadruplicate and independently repeated.

uterine growth = test system: uterine growth; set-up: method as in PMID 10447965; settings: ovariectomized rats; cited from earlier work
[7] = test system: estrogen-sensitive breast cancer T47-D cells (ER+); set-up: method as in doi:10.5802/crchim.17; settings: previous study; cited from earlier work
HepaRG cell cycle = test system: HepaRG cell cycle; set-up: method as in doi:10.5802/crchim.17; settings: HepaRG cells; cited from earlier work
[8] = test system: MCF-7, T47D, LNCaP, HepaRG, Caco-2 and NHDF cell lines; assay: MTT screening at 30 µM in six cell lines; format: cell-based; settings: 72 h
Description: as §3

Which IC50 (Caco-2 cells) does the source give for `C[C@]12CC[C@@H]3c4ccc(O)cc4CC[C@H]3[C@@H]1CCC2=O` [Compound 1, estrone, reference compound] here?
Its IC50 is 42.7 µM.

What about the IC50 (MCF-7 cells) of the same molecule?
The IC50 was 41.9 µM.

And the IC50 (HepaRG cells)?
Its IC50 is 29.5 µM.

What about the IC50 [1] of the same molecule?
The IC50 was 61.8 µM.

With `O=c1[nH]cc(F)c(=O)[nH]1` [Compound 5-FU, 5-fluorouracil, reference compound] as the molecule, how does the selectivity ratio at 72 h (in vitro) read?
Its selectivity ratio at 72 h is 2.76.

And the IC50 (Caco-2 cells)?
The IC50 was 1.31 µM.

And the “Reduction in cell viability” value (LNCaP cells [2])?
Its value is 12%.

And the “Selectivity index, MCF-7” value (MCF-7 cells)?
Its value is 2.11.

What about the “Effect on cell cycle distribution” value (LNCaP cells [3]) of the same molecule?
Its value is “not able to pass through to the S and G2/M phases”.

And the IC50 (LNCaP cells [4]; 72 h)?
The IC50 was 7.79 µM.

And the “Selectivity index, LNCaP” value (LNCaP cells [4])?
The value was 0.46.

What about the IC50 (HepaRG cells) of the same molecule?
The IC50 was 1.78 µM.

And the “Selectivity index, HepaRG” value (HepaRG cells)?
Its value is 2.03.

What about the IC50 (T47-D cells) of the same molecule?
The IC50 was 0.54 µM.

What about the “Selectivity index, T47-D” value (T47-D cells) of the same molecule?
The value was 6.69.

What about the IC50 [1] of the same molecule?
The IC50 was 3.61 µM.

With `CC12CCC3c4ccc(O)cc4CCC3C1CC(=NO)C2=O` (stereo not drawn) [Compound 16-oxime] as the molecule, how does the “% inhibition of 17β-HSD1” value (17β-HSD1) read?
Its value is 96%.

Which IC50 (HepaRG cells) does the source give for `C[C@]12CCC3c4cc(Br)c(O)c(Br)c4CCC3C1CCC2=NO` (stereo partly drawn) [Compound 12, 17-hydroxyimino-2,4-dibromo-3-hydroxyestra-1,3,5(10)-trien-3-ol] here?
Its IC50 is 21.9 µM.

Which results are given for `C[C@]12CC=C3c4ccc(O)cc4CCC3C1CCC2=NO` (stereo partly drawn) [Compound 11, 17-hydroxyimino-3-hydroxyestra-1,3,5(10),9(11)-tetraen-3-ol]?
selectivity ratio at 72 h (in vitro): 1.27; IC50 (Caco-2 cells): 24.3 µM; Reduction in cell viability (LNCaP cells [2]): 11%; IC50 (MCF-7 cells): 25.6 µM; Selectivity index, MCF-7 (MCF-7 cells): 1.20; Effect on cell cycle distribution (LNCaP cells [3]): induced a G2/M cell cycle arrest; Nuclei morphology (Hoechst 33,258) (LNCaP cells [5]): condensed DNA, typical of prophase, and a small proportion of condensed and fragmented nuclei, typical of apoptosis; IC50 (LNCaP cells [4]; 72 h): 3.59 µM; Reduction of cell proliferation in screening (LNCaP cells [4]; LNCaP cells, 30 µM, 72 h, MTT): significant reduction of LNCaP cells proliferation; Selectivity index, LNCaP (LNCaP cells [4]): 8.59; IC50 (HepaRG cells): 18.4 µM; Selectivity index, HepaRG (HepaRG cells): 1.68; Proliferative/estrogenic effect on T47-D cells [6]: stimulated the cell proliferation; IC50 (T47-D cells): 43.5 µM; Selectivity index, T47-D (T47-D cells): 0.71; IC50 [1]: 30.8 µM

Which “Stimulatory effect on the uterine growth” value (uterine growth) does the source give for `C[C@]12CCC3c4ccc(OS(N)(=O)=O)cc4CCC3C1CC/C2=N\O` (stereo partly drawn) [OMATE, estrone oxime sulfamate] here?
Its value is 0.15 g.

For `C[C@]12CC[C@@H]3c4ccc(O)cc4CC[C@H]3[C@@H]1CC[C@@H]2O` [Compound E2, 17β-estradiol, reference compound], which “Proliferative/estrogenic effect on T47-D cells” value [6] is on record?
The value was “stimulated the cell proliferation”.

For `C[C@]12CC[C@@H]3c4ccc(OS(N)(=O)=O)cc4CC[C@H]3[C@@H]1CCC2=O` [EMATE, estrone sulfamate], which “Stimulatory effect on the uterine growth” value (uterine growth) is on record?
The value was 0.11 g.

For `C[C@]12CC=C3c4ccc(O)cc4CCC3C1CCC2=O` (stereo partly drawn) [Compound 8, Δ^9,11-E1], which “Proliferative/estrogenic effect on T47-D cells” value [7] is on record?
The value was “stimulated the proliferation of T47-D cells”.

What about the “Effect on cell cycle” value (HepaRG cell cycle) of the same molecule?
Its value is “induced an arrest at G0/G1”.

Which “Cytotoxic/antiproliferative effect in screening” value [8] does the source give for `C[C@]12CC[C@@H]3c4cc([N+](=O)[O-])c(O)c([N+](=O)[O-])c4CC[C@H]3[C@@H]1CCC2=NO` [Compound 6, 17-hydroxyimino-2,4-dinitroestra-1,3,5(10)-trien-3-ol] here?
Its value is “low antiproliferative activity”.

With `C[C@]12CC[C@@H]3c4cc([N+](=O)[O-])c(O)cc4CC[C@H]3[C@@H]1CCC2=NO` [Compound 5, 17-hydroxyimino-2-nitroestra-1,3,5(10)-trien-3-ol] as the molecule, how does the IC50 (Caco-2 cells) read?
The IC50 was 18.5 µM.

What about the IC50 (MCF-7 cells) of the same molecule?
The IC50 was 16.8 µM.

What about the IC50 (HepaRG cells) of the same molecule?
The IC50 was 12.3 µM.

With `C[C@]12CC[C@@H]3c4ccc(O)cc4CC[C@H]3[C@@H]1CCC2=NO` [Compound 2, 17-hydroxyiminoestra-1,3,5(10)-trien-3-ol] as the molecule, how does the IC50 (MCF-7 cells) read?
The IC50 was 26.7 µM.

What about the “Selectivity index, MCF-7” value (MCF-7 cells) of the same molecule?
The value was 1.65.

What about the IC50 (HepaRG cells) of the same molecule?
The IC50 was 16.9 µM.

And the “Selectivity index, HepaRG” value (HepaRG cells)?
The value was 2.59.

And the IC50 (T47-D cells)?
Its IC50 is 29.3 µM.

What about the “Selectivity index, T47-D” value (T47-D cells) of the same molecule?
The value was 1.50.

What about the IC50 [1] of the same molecule?
The IC50 was 43.9 µM.

With `C[C@]12CC[C@@H]3c4cc(I)c(O)c(I)c4CC[C@H]3[C@@H]1CCC2=NO` [Compound 10, 17-hydroxyimino-2,4-diiodooestra-1,3,5(10)-trien-3-ol] as the molecule, how does the IC50 (HepaRG cells) read?
The IC50 was 28 µM.
